Laboratory results from US10350158B2, “2′ fluoro-modified RNAs as immunostimulators” (DUKE UNIVERSITY, priority 2013, dated 2019).
Strand notation (5' to 3'): a small letter for the sugar, then the base; units joined by * are phosphorothioate-linked, units joined directly phosphodiester-linked; [ ] holds rarer units or linkages, { } end groups; capitals alone tell only the bases. {ppp} = triphosphate; r = 2'-OH (RNA); f = 2'-fluoro

Legend:
IFNβ = IFNβ ELISA of transfected melanoma cell supernatants; type: cell-based, human
Protocol: For the intracellular delivery of immune stimulatory RNAs, RNAs were transfected with the DharmaFECT® Duo liposomal transfection reagent (Thermo Scientific, Waltham, Mass.) at a transfection reagent (μl):RNA (μg) ratio of 3.75:1, according to the manufacturer's instructions. Unless otherwise stated, for the induction of innate immune responses and apoptosis, immune stimulatory RNAs (500 ng/ml) were transfected into 50 to 70% confluent cells. Cells were incubated with an RNA-transfection agent complex for 5 h, followed by replenishment with fresh culture medium. To electroporate cells, 1×10^5 cells suspended in 200 μl Opti-MEM I (Invitrogen) were mixed with 1 μg of immune stimulatory RNAs or 5 μg of 2'Fluoro pyrimidine ribonucleoside triphosphate in 2-mm cuvettes and were electroporated at 300 V for 500 μs using an Electro Square Porator ECM 830 (BTX, San Diego, Calif.). For the knockdown of RNA-sensing PRRs, cells were transfected with PRR-specific siRNAs (25 nM) twice at 2-day intervals using DharmaFECT®-1 (Thermo Scientific). At 5 h after the second siRNA transfection, cells were harvested, replated into a 96-well plate and incubated overnight. Cells were then treated with immune stimulatory RNA transfections. Staurosporine (2 μM) (Sigma, St Louis, Mo.) and recombinant human IFNβ (20 ng/ml) (PeproTech, Rocky Hill, N.J.) were used as positive controls of anti-melanoma cytotoxicity. […] (100 ng/ml) (eBioscience, San Diego, Calif.) was added directly to the growth media of cells to neutralize IFNβ. Cells were transfected with RNAs as described above. At 24 hours after RNA transfection, culture supernatants were collected and stored at -80° C. for later analyses. The production of human IL-8 was analyzed with a human IL-8 ELISA kit (eBioscience). IFN-β production was determined with a human IFN-β ELISA kit (PBL Biomedical Laboratories, Piscataway, N.J.) by following the manufacturer's instructions.

WM266-4 cells [1] = assay: Apoptosis / cell death by Annexin V-PE and 7-AAD flow cytometry; type: cell-based, human; settings: aptamer treated with bacterial alkaline phosphatase (BAP), 0.125 μg/ml
Protocol: For the intracellular delivery of immune stimulatory RNAs, RNAs were transfected with the DharmaFECT® Duo liposomal transfection reagent (Thermo Scientific, Waltham, Mass.) at a transfection reagent (μl):RNA (μg) ratio of 3.75:1, according to the manufacturer's instructions. Unless otherwise stated, for the induction of innate immune responses and apoptosis, immune stimulatory RNAs (500 ng/ml) were transfected into 50 to 70% confluent cells. Cells were incubated with an RNA-transfection agent complex for 5 h, followed by replenishment with fresh culture medium. […]
(§1) Growth inhibition relative to untreated cells was quantified at 72 h after RNA transfection using an MTT Cell Proliferation Assay Kit (Cayman Chemicals, Ann Arbor, Mich.), according to the manufacturer's instructions. The percent growth inhibition was calculated by using the following equation: % growth inhibition=([O.D.]untreated−[O.D.]treated)/[O.D.]untreated×100. The induction of cell death was measured 48 h after RNA transfection by flow cytometry after staining with Annexin V-PE and 7-Aminoactinomycin D (7-AAD) using the PE Annexin V Apoptosis Detection Kit I (BD Biosciences, San Jose, Calif.) and analyzed using the CellQuest software (BD Biosciences).

Human TLR7 = biological target: T1, Human TLR7 (Homo sapiens, UniProt Q9NYK1); assay: IL-8 production by human TLR7-expressing HEK293 cells; type: cell-based
T1 construct: expressed in transfected cells; host or cells: HEK293 (HEK-TLR7), gift of Dr. Todd Brennan, Duke University
T1 sequence (Q9NYK1 27-1049): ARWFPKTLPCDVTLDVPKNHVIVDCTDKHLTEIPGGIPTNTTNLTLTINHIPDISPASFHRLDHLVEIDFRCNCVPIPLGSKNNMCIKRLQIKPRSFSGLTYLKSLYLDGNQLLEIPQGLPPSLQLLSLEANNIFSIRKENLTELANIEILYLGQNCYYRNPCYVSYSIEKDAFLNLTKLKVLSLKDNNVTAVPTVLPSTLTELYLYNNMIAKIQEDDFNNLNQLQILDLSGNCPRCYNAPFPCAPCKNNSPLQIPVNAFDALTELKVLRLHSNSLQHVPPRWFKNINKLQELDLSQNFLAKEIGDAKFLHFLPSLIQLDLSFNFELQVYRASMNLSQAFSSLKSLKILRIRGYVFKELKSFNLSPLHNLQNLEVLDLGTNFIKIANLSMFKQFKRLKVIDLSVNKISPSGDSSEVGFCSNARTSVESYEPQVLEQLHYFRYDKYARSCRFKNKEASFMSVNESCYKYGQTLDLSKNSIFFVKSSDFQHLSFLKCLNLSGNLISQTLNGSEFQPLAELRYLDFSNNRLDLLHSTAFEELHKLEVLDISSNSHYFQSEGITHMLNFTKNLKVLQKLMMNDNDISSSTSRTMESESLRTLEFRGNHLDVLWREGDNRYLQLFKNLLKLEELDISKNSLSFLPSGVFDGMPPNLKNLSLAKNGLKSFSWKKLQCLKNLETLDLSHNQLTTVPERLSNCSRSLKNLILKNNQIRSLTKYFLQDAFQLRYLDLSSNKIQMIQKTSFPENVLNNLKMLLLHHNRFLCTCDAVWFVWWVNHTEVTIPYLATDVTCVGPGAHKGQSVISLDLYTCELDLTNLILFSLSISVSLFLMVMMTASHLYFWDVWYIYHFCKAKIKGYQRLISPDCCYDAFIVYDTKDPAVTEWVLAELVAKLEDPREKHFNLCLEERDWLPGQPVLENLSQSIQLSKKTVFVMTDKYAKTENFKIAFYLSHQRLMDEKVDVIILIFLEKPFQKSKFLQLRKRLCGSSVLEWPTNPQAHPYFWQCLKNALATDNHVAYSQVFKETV
Protocol: (§2) The human TLR3 reporter cell, HEK-hTLR3-NFκB/SEAP was purchased from Invivogen. These cells were stably co-transfected with the human TLR3 gene and an inducible SEAP (secreted embryonic alkaline phosphatase) reporter gene into HEK293 cells. The SEAP gene is placed under the control of NF-κB and AP-1. […] SEAP gene expression was measured using the SEAP detection media QUANTI-BLUE (Invivogen), according to the manufacturer's instructions. FIG. 3B is a graph showing that TLR7 is not stimulated by the ssRNAs. Human TLR7-expressing HEK293 cells were kindly provided by Dr. Todd Brennan (Duke University, Durham, N.C.). Treatment with R848 but not with polyI:C, polyI:C-DF and 5′ppp 2′F 10F-DF complexes stimulated HEK-TLR7 cells to produce the inflammatory cytokine IL-8. The data represent the mean of two experiments. Error bars represent the S.D.

human TLR3 = biological target: T2, human TLR3 (Homo sapiens, UniProt O15455); assay: HEK-hTLR3-NFκB/SEAP reporter assay; type: cell-based; settings: QUANTI-BLUE
T2 construct: host or cells: HEK293 (HEK-hTLR3-NFκB/SEAP)
Protocol: as §2

RIG-I, MDA-5, and PKR = assay: Western blot of RNA-sensing PRR expression after transfection; type: cell-based, human; settings: 24 hours after treatment
Protocol: FIG. 2A is a set of FACS plots showing induction of apoptosis. WM266-4 cells were incubated with either liposome (DF) alone or 5′ppp 2′F 10F-liposome complex (10F/DF). At 5 h after incubation, cells were replenished with fresh culture medium. Cells were then incubated for an additional 48 hours, harvested and analyzed for cell death. FIG. 2B is a set of Western blots showing activation of caspases and PARP after transfection. WM266-4 cells were either mock-treated, treated with the 5′ppp 2′F 10F without the transfection reagent, or with the 5′ppp 2′F 10E-transfection reagent complex at the indicated concentrations (1 μg/ml or 0.5 μg/ml). The activation of caspase-7, -9, and PARP was assessed by western blot using antibodies specific to the activated (cleaved) proteins (24 h after treatment). Staurosporine-treated cells were used as a positive control. […] The growth inhibition was assessed at 72 h after electroporation. […] WM266-4 cells were treated as in (FIG. 2B), and the expression of RIG-I, MDA-5, and PKR was analyzed at 24 hours after treatments. […]
Cell lysates were prepared in 1×RIPA buffer (Sigma) in the presence of the complete protease inhibitor cocktail (Roche). […] When different proteins were sequentially detected on the same membrane, membranes were treated for 8 minutes with Restore Western Blot Stripping Buffer (Thermo Scientific), washed, blocked and probed again, as described above. […]

WM266-4 cells [2] = type: cell-based; settings: MTT
Protocol: For the intracellular delivery of immune stimulatory RNAs, RNAs were transfected with the DharmaFECT® Duo liposomal transfection reagent (Thermo Scientific, Waltham, Mass.) at a transfection reagent (μl):RNA (μg) ratio of 3.75:1, according to the manufacturer's instructions. Unless otherwise stated, for the induction of innate immune responses and apoptosis, immune stimulatory RNAs (500 ng/ml) were transfected into 50 to 70% confluent cells. Cells were incubated with an RNA-transfection agent complex for 5 h, followed by replenishment with fresh culture medium. To electroporate cells, 1×10^5 cells suspended in 200 μl Opti-MEM I (Invitrogen) were mixed with 1 μg of immune stimulatory RNAs or 5 μg of 2′Fluoro pyrimidine ribonucleoside triphosphate in 2-mm cuvettes and were electroporated at 300 V for 500 μs using an Electro Square Porator ECM 830 (BTX, San Diego, Calif.). For the knockdown of RNA-sensing PRRs, cells were transfected with PRR-specific siRNAs (25 nM) twice at 2-day intervals using DharmaFECT®-1 (Thermo Scientific). At 5 h after the second siRNA transfection, cells were harvested, replated into a 96-well plate and incubated overnight. Cells were then treated with immune stimulatory RNA transfections. Staurosporine (2 μM) (Sigma, St Louis, Mo.) and recombinant human IFNβ (20 ng/ml) (PeproTech, Rocky Hill, N.J.) were used as positive controls of anti-melanoma cytotoxicity. B18R (100 ng/ml) (eBioscience, San Diego, Calif.) was added directly to the growth media of cells to neutralize IFNβ.
as §1

T2 sequence (O15455 24-904): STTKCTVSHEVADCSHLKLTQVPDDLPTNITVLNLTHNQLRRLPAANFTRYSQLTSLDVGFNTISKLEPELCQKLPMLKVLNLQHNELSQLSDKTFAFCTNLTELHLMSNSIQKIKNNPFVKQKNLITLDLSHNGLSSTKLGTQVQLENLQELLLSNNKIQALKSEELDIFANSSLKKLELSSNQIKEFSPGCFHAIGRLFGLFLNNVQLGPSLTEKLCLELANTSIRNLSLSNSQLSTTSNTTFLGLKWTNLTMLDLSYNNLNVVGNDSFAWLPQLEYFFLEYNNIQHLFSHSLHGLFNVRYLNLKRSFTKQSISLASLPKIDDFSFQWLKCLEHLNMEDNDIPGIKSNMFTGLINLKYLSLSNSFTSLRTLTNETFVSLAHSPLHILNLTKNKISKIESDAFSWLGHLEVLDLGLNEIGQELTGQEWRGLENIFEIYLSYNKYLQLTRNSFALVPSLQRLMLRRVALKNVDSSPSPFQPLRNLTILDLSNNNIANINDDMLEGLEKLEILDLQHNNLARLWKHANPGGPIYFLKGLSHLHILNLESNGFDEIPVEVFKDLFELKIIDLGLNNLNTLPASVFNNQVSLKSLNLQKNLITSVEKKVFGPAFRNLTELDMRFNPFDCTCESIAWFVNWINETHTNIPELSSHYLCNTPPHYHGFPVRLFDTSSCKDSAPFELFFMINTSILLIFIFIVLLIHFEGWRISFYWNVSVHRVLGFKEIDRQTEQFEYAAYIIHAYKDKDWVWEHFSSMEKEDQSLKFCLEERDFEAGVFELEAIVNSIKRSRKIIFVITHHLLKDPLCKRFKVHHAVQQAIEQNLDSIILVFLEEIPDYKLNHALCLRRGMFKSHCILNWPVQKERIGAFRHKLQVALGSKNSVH

9.14T10: 5′ppp 2′F ssRNA aptamer, 60 nt, von Willebrand Factor-specific, SEQ ID NO: 6 ({ppp}-rGrGrGrArGrGfUrGrGrAfCrGrArAfCfUrGfCfCfCfUfCrArGfCfUrAfCfUfUfUfCrAfUrGfUfUrGfCfUrGrAfCrGfCrAfCrArGrAfCrGrAfCfUfCrGfCfUrG) [Aptamer 9.14T10]
IFNβ production after dephosphorylation of the aptamer (IFNβ; aptamer treated with bacterial alkaline phosphatase (BAP), 0.125 μg/ml): partially prevented
apoptosis after dephosphorylation of the aptamer (WM266-4 cells [1]): partially prevented

CCOCc1nc2c(N)nc3ccccc3c2n1CC(C)(C)O [Aptamer R848, R848]
stimulation of HEK-TLR7 cells to produce IL-8 (Human TLR7): stimulated
stimulation of TLR3 reporter cells (SEAP) (human TLR3): not

CN[C@@H]1C[C@H]2O[C@@](C)([C@@H]1OC)n1c3ccccc3c3c4c(c5c6ccccc6n2c5c31)C(=O)NC4 [staurosporine]
induction of RIG-I, MDA-5 and PKR expression (RIG-I, MDA-5, and PKR): not observed

Motif 1: 29-mer 5′ppp-2′F ssRNA, 5′overhang stem-loop, first 29 nucleotides of 10F, SEQ ID NO: 14 ({ppp}-rGrGrGrArGrGrAfCrGrAfUrGfCrGrGfUrAfCfCfUrGrAfCrArGfCrAfUfC)
IFNβ induction compared to 10F treatment, in words (IFNβ; IFNβ ELISA): significantly lower
cytotoxicity compared to 10F treatment, in words (WM266-4 cells [2]): significantly lower

Motif 1A: 37-mer extended variant of Motif 1 with longer 5′overhang, SEQ ID NO: 15 ({ppp}-rGrGrGfUrArArGfUrGrGrGrArGrGrAfCrGrAfUrGfCrGrGfUrAfCfCfUrGrAfCrArGfCrAfUfC)
IFNβ production compared to treatment with Motif 1 (IFNβ; IFNβ ELISA): significantly decreased
cytotoxic effect compared to treatment with Motif 1 (WM266-4 cells [2]): significantly decreased

Motif 3: 30-mer extended variant of Motif 2, 3′overhang stem-loop, SEQ ID NO: 17 ({ppp}-rGrGrAfUrGfCrGrGfUrAfCfCfUrGrAfCrArGfCrAfUfCfUfUrGrArArAfUrA)
IFNβ induction compared to 10F treatment, in words (IFNβ; IFNβ ELISA): not statistically significant
cytotoxicity compared to 10F treatment, in words (WM266-4 cells [2]): not statistically significant

Poly(U)30: 5′ppp-2′F ssRNA of 30 uridines, minimal secondary structure, SEQ ID NO: 13 (UUUUUUUUUUUUUUUUUUUUUUUUUUUUUU; 5'-triphosphate, 2'-fluoro modifications; Synthetic RNA Aptamer Poly(U)30)
growth inhibition / cytotoxicity (anti-melanoma effect), in words (WM266-4 cells [2]; liposomal transfection, 72 h): not

polyI:C
stimulation of HEK-TLR7 cells to produce IL-8 (Human TLR7): not
stimulation of TLR3 reporter cells (SEAP) (human TLR3): specifically stimulated
